Measurements from patent publication US12213963B2, “Topical formulation of disease-modifying antirheumatic drug (DMARDs) for the treatment of rheumatoid arthritis, melanoma, squamous cell carcinoma, atopic dermatitis, and psoriasis” (priority 2022, dated 2025).

Test: Solubility of leflunomide in oils, surfactants and co-surfactants
Type: physicochemical
Procedure: Solubility of leflunomide was investigated in various oils, surfactants and co-surfactants. The selected excipients showing good solubility were further screened using turbidimetric method to check the emulsification efficiency of the system. Water titration method was used to select combination of oil, surfactant and co surfactant which provided clear systems with water. Briefly, the drug was dissolved in the oil by vortexing. Surfactant and co-surfactants were added to the oil phase and further titrated with water to check the ease of emulsification. The globule size of these systems was determined. Capryol® 90 and Capmul® PG2L were selected as the oil component. The solubility of the drug was highest in these oils and adequate to achieve the required drug loading. […] Out of the various gelling agents screened, Carbopol® 974P was selected because it formed uniform gel with good texture and consistency.

SMILES: Cc1oncc1C(=O)Nc1ccc(C(F)(F)F)cc1 [leflunomide]
- drug solubility in co-surfactant PEG 400: higher drug solubility
- drug solubility in surfactants Tween 20 and Kolliphor RH 40: high drug solubility
- solubility of the drug in oils Capryol 90 and Capmul PG2L (compared with other oils screened): highest
